Laboratory results from US20230270781A1, “TREATMENT OR PREVENTION OF PRO-INFLAMMATORY DISEASES OR CONDITIONS USING INDUCED REGULATORY T (ITREG) CELLS” (RAPA THERAPEUTICS, LLC, priority 2020, published 2023).

Legend:
Type in all cases: cell-based
[1] = test system: human CD4+ and CD8+ T cells; experiment: RNA expression analysis (Luminex Quantigene) after 3-day de-differentiation culture; settings: relative to control Th1/Tc1 culture, temsirolimus 1 µM
Method: At the end of the de-differentiation interval, cells were harvested, RNA was isolated, and RNA expression analysis was performed by Luminex Quantigene method. All results shown represent relative RNA expression, with results normalized to a value of 1.0 for the Th1/Tc1 control culture.

[2] = test system: human CD4+ and CD8+ T cells; experiment: Western blot for autophagy-related molecule p62 after 3-day de-differentiation culture; settings: 3-day culture, 1:3 bead-to-T cell ratio; temsirolimus 1.0 or 0.3 µM, Vitamin D 0.01-1.0 nM, Daclizumab 50 µg/ml
Description: After the 3-day culture interval, the T cells were harvested, and protein was isolated and subjected to western blot analysis for the autophagy-related gene, p62, and the housekeeping gene, Actin.

[3] = test system: human CD4+ and CD8+ T cells; experiment: Luminex cytokine analysis of de-differentiated T cells cultured in polarization-neutral media; settings: Vitamin D concentration during the de-differentiation interval
Method: FIGS. 11A-11D depict the inflammatory Th1/Th17 cytokine analysis of cultured de-differentiated T cells in polarization-neutral media. […] After 3-days, the de-differentiated T cells were co-stimulated (typical bead-to-T cell ratio of 3:1) in media supplemented with the T cell growth cytokines rhu IL-2 (100 IU/ml) and rhu IL-7 (10 ng/ml), which are not potent in terms of inducing T cell polarization. After 10 days in culture (total, day 13 of culture), the T cells were harvested, washed, and re-stimulated with 3/28 beads (3:1 ratio) for 24 hr; the resultant supernatant was harvested and tested for cytokine content by Luminex multi-analyte method. All results shown are expressed as cytokine level in pg per ml per 1 × 10^6 cells/ml/24 hr.
FIGS. 12A-12D depicts the IL-2 and Th2-type cytokine analysis of cultured de-differentiated T cells in polarization-neutral media. […] After 3-days, the de-differentiated T cells were co-stimulated (typical bead-to-T cell ratio of 3:1) in media supplemented with the T cell growth cytokines rhu IL-2 (100 IU/ml) and rhu IL-7 (10 ng/ml), which are not potent in terms of inducing T cell polarization. […] All results shown are expressed as cytokine level in pg per ml per 1 × 10^6 cells/ml/24 hr.

[4] = test system: human CD4+ and CD8+ T cells; experiment: Western blot for Raptor, Rictor, p70S6K, SGK1 after 3-day de-differentiation culture; settings: relative to control culture without the three inhibitors; temsirolimus 1 µM, Vitamin D 0.03-1.0 nM, Daclizumab 50 µg/ml
Description: After the 3-day culture interval, the T cells were harvested, and protein was isolated and subjected to western blot analysis for the mTORC1 complex protein, Raptor; the mTORC2 complex protein, Rictor; the post-mTORC1 protein p70S6K; the post-mTORC2 protein, SGK1; and the housekeeping gene, GAPDH.

[5] = test system: human CD4+ and CD8+ T cells; experiment: T cell yield at day 13 after de-differentiation interval and re-stimulation without inhibitors; settings: columns #5 and #6; Vitamin D reduced to 0.01 nM or increased to 1.0 nM
Method: After 10 days (13 days of total culture), the T cells were harvested, enumerated, and evaluated by flow cytometry. FIG. 8 illustrates the effect of culture components during the de-differentiation interval on subsequent T cell yield (at day 13 of culture). […] After the 3-day interval, media was exchanged to fresh X-Vivo 20 without inhibitors, high-level co-stimulation was provided (3:1 bead-to-T cell ratio), and the T cell growth cytokines IL-2 (100 IU/ml) and IL-7 (10 ng/ml) were added. At day 13 of culture, viable T cells were enumerated and the overall yield is shown relative to day 0 input number.

[6] = test system: human CD4+ and CD8+ T cells; experiment: Western blot for mTORC1 complex protein Raptor after 3-day de-differentiation culture
Description: After the 3-day culture interval, the T cells were harvested, and protein was isolated and subjected to western blot analysis for the mTORC1 complex protein, Raptor, and the housekeeping gene, Actin.

[7] = 3-day culture, bead-to-T cell ratio 1:3, Vitamin D 0.1 or 1.0 nM

SMILES: C=C1/C(=C\C=C2/CCC[C@]3(C)[C@@H]([C@H](C)CCCC(C)(C)O)CC[C@@H]23)C[C@@H](O)C[C@@H]1O [Vitamin D, 1,25-vitamin D]
- Granzyme B RNA expression [1, 7]: reduction
- IFN-gamma RNA expression [1, 7]: reduction
- IL-10 RNA expression [1, 7]: reduction
- IL-7 receptor alpha RNA expression ([1]; Vitamin D 1.0 nM): not Vitamin D alone
- KLF4 RNA expression ([1]; Vitamin D 1.0 nM): neither temsirolimus nor Vitamin D alone increased
- KLF10 RNA expression ([1]; Vitamin D 1.0 nM): does not act alone to up-regulate
- HIF-1-α RNA expression ([1]; Vitamin D 0.1 to 1.0 nM): did not down-regulate
- Nanog transcription factor RNA expression ([1]; Vitamin D 0.1 to 1.0 nM): does not act alone to up-regulate
- STAT1 RNA expression ([1]; Vitamin D 0.1 to 1.0 nM): acts alone to beneficially down-regulate
- T-BET RNA expression ([1]; Vitamin D 0.1 to 1.0 nM): acts alone to beneficially down-regulate
- p62 expression (western blot, normalized by actin) [2]: increased p62 expression
- IFN-γ and TNF-α levels with Vitamin D 0.01 nM relative to 0.1 nM [3]: somewhat higher levels
- Rictor expression (western blot) [4]: effective
- T cell yield at day 13 with Vitamin D 0.01 nM or 1.0 nM [5]: very low yield
- Raptor inhibition at Vitamin D 0.01 nM ([6]; Vitamin D level reduced to 0.01 nM): sub-optimal Raptor inhibition
- Raptor expression at Vitamin D 0.3 nM ([6]; culture 7, 0.3 nM Vitamin D, versus 0.1 nM): higher level of Raptor expression
